Test results: US20250288587A1, “Methods of Treating Fibrosis” (Athira Pharma, Inc., priority 2022, published 2025)

Experiments:
Format in all cases: in vivo
[1] = system: C57BL/6 mice, bleomycin-induced pulmonary fibrosis; assay: Bleomycin-induced pulmonary fibrosis in mice; set-up: key to Collagen, improvement in BLM-induced alterations versus disease control / Alpha-Smooth Muscle Actin, improvement in BLM-induced alterations versus disease control / Body Weight, improvement in BLM-induced alterations versus disease control / Right Lung Weight, improvement in BLM-induced alterations versus disease control / Hydroxyproline, improvement in BLM-induced alterations versus disease control: + = >5-25% improvement vs disease control; ++ = >26-50% improvement vs disease control; +++ = >51-100% improvement v disease control; NS means not significant; details: for Body Weight, improvement in BLM-induced alterations versus disease control / Right Lung Weight, improvement in BLM-induced alterations versus disease control: days 3-21; for Collagen, improvement in BLM-induced alterations versus disease control / Hydroxyproline, improvement in BLM-induced alterations versus disease control / TGF-Beta, improvement in BLM-induced alterations versus disease control: right lung homogenate
Experimental: Lung fibrosis in C57BL/6 mice is induced by a single […] injection of the chemotherapy drug bleomycin. Mice are treated with vehicle or test compound. At termination (study day 28), one lung is weighed, with increased weight indicating more advanced fibrosis. Lung tissue is also homogenized for hydroxyproline, collagen, and TGF-β quantification. Lung tissue is also formalin-fixed and further processed for H&E, collagen morphometry, Ashcroft's score, and both α-SMA and TUNEL expression analyses. Plasma is analyzed by multiplex bead array for MMP-2, MMP-9, IL-1β, IL-6, IL-12, and TNF-α expression.
The experimental design described in Example B1 with the following changes was used to assess the ability of Compound 1a to reduce pulmonary fibrosis. Briefly, Male C57BL/6 mice (Envigo) […] were used. The mice were 3.5-4 months old and ˜24-30 g by weight. On day −1 animals were randomized based on body weight and the animals were assigned with a permanent number by ear notching. Cages were identified by cage cards indicating the study code, group number, sex, dose, cage number, number of animals and animal number details.
On day 0, all animals (except the sham control animals) were administered bleomycin (0.03 U in 50 μl normal saline) intratracheally (i.t.) under Ketamine+Xylazine anesthesia. The sham control animals were dosed with 50 μl of normal saline intratracheally. Pirfenidone was used as a positive control; this compound is known to downregulate growth factors and procollagens to reduce fibrosis and is an approved drug for the treatment of idiopathic pulmonary fibrosis.
Vehicle, pirfenidone and test Compound 1a dosing was initiated from day 3 to day 21 as described in the following Table 2. On day 21 whole blood was collected 1-hour post-dose into EDTA and then processed to plasma. Right lungs were then collected, weighed, snap frozen and later homogenized for biochemical analysis. Hydroxyproline, collagen and TGF-Beta levels were measured in the right lung homogenates.

[2] = system: pulmonary LPS-stimulated rats; assay: Immune cell infiltration in BALF, LPS-induced acute pulmonary inflammation; details: 0.0075 mg/kg IV, 24 h and 0.5 h before LPS; BALF 4 h post LPS
CFA-stimulated rats = assay: CFA inflammatory pain model, thermal hyperalgesia (Hargreaves method); details: Day 5, 1 hour pre-dosing; data not shown
[3] = system: BALB/c mice, CCl4 mouse model of liver fibrosis; assay: CCl4-induced liver fibrosis, plasma AST; details: for AST in plasma, improvement compared to disease control: from study day 21, termination day 43
Experimental: Liver fibrosis in BALB/c mice was induced by biweekly intraperitoneal injections of carbon tetrachloride (CCl4) from study day 0 to 43. Mice were treated with vehicle, Compound 1a, or positive control, SB535334, beginning at study day 21. At termination (study day 43), plasma was tested for liver function via levels of aspartate aminotransferase (AST).
AST can be used as a marker of liver damage, because increased levels are released in the blood stream in chronic liver disease.

[4] = dose 0.2 mg/kg PO daily, day 21
[5] = dose 0.8 mg/kg PO daily, day 21

Compound: CCC(C)CN1CC2N(C(=O)c3ccc(C(F)(F)F)cc3)CCC(=O)N2[C@@H](C)C1=O (some centres unmarked) [Compound 1a]
- body weight loss compared to the other treatment groups ([1]; 0.8 mg/k): slightly greater weight loss
- collagen in right lung homogenate compared with pirfenidone ([1]; 2 mg/kg): about the same levels of collagen
- collagen concentration in right lung homogenates ([1]; 8 mg/kg): reduced compared to the pirfenidone positive control
- hydroxyproline concentration in right lung homogenates at termination ([1]; 8 mg/kg and 2 mg/kg, also less than pirfenidone-treated animals): lower concentrations of hydroxyproline
- weight of whole right lungs at termination (day 21) ([1]; 8 mg/kg and 2 mg/kg, versus pirfenidone-treated animals): less than the positive control
- alpha-smooth muscle actin expression ([1]; 8 mg/kg, day 21): significantly reduced expression of this marker
- bleomycin-induced increases in TGF-β in right lung homogenates ([1]; all doses, day 21): significantly protected against bleomycin-induced increases in TGF-β
- protection against bleomycin-induced body weight loss ([1]; all treatment groups, over the study period): did not protect against body weight loss
- Body Weight, improvement in BLM-induced alterations versus disease control ([1]; dose 0.2 mg/kg PO daily): NS
- Right Lung Weight, improvement in BLM-induced alterations versus disease control [1, 4]: NS
- Alpha-Smooth Muscle Actin, improvement in BLM-induced alterations versus disease control [1, 4]: + (+ = >5-25% improvement vs disease control)
- Collagen, improvement in BLM-induced alterations versus disease control [1, 4]: NS
- Hydroxyproline, improvement in BLM-induced alterations versus disease control [1, 4]: NS
- TGF-Beta, improvement in BLM-induced alterations versus disease control [1, 4]: +++ (+++ = >51-100% improvement v disease control)
- Body Weight, improvement in BLM-induced alterations versus disease control ([1]; dose 0.8 mg/kg PO daily): NS
- Right Lung Weight, improvement in BLM-induced alterations versus disease control [1, 5]: + (+ = >5-25% improvement vs disease control)
- Alpha-Smooth Muscle Actin, improvement in BLM-induced alterations versus disease control [1, 5]: NS
- Collagen, improvement in BLM-induced alterations versus disease control [1, 5]: + (+ = >5-25% improvement vs disease control)
- Hydroxyproline, improvement in BLM-induced alterations versus disease control [1, 5]: NS
- TGF-Beta, improvement in BLM-induced alterations versus disease control [1, 5]: +++ (+++ = >51-100% improvement v disease control)
- Body Weight, improvement in BLM-induced alterations versus disease control ([1]; dose 2 mg/kg PO daily): NS
- Right Lung Weight, improvement in BLM-induced alterations versus disease control ([1]; dose 2 mg/kg PO daily, day 21): + (+ = >5-25% improvement vs disease control)
- Alpha-Smooth Muscle Actin, improvement in BLM-induced alterations versus disease control ([1]; dose 2 mg/kg PO daily, day 21): + (+ = >5-25% improvement vs disease control)
- Collagen, improvement in BLM-induced alterations versus disease control ([1]; dose 2 mg/kg PO daily, day 21): ++ (++ = >26-50% improvement vs disease control)
- Hydroxyproline, improvement in BLM-induced alterations versus disease control ([1]; dose 2 mg/kg PO daily, day 21): ++ (++ = >26-50% improvement vs disease control)
- TGF-Beta, improvement in BLM-induced alterations versus disease control ([1]; dose 2 mg/kg PO daily, day 21): +++ (+++ = >51-100% improvement v disease control)
- Body Weight, improvement in BLM-induced alterations versus disease control ([1]; dose 8 mg/kg PO daily): NS
- Right Lung Weight, improvement in BLM-induced alterations versus disease control ([1]; dose 8 mg/kg PO daily, day 21): ++ (++ = >26-50% improvement vs disease control)
- Alpha-Smooth Muscle Actin, improvement in BLM-induced alterations versus disease control ([1]; dose 8 mg/kg PO daily, day 21): ++ (++ = >26-50% improvement vs disease control)
- Collagen, improvement in BLM-induced alterations versus disease control ([1]; dose 8 mg/kg PO daily, day 21): +++ (+++ = >51-100% improvement v disease control)
- Hydroxyproline, improvement in BLM-induced alterations versus disease control ([1]; dose 8 mg/kg PO daily, day 21): + (+ = >5-25% improvement vs disease control)
- TGF-Beta, improvement in BLM-induced alterations versus disease control ([1]; dose 8 mg/kg PO daily, day 21): +++ (+++ = >51-100% improvement v disease control)
- alpha-smooth muscle actin morphometory ([1]; other doses of Compound 1a, pirfenidone doses, day 21): insignificant decreases
- Neutrophils in BALF, reduction in cell count vs disease control [2]: ++ (++ = >25% reduction in cell count vs disease control)
- Total Leukocytes in BALF, reduction in cell count vs disease control [2]: ++ (++ = >25% reduction in cell count vs disease control)
- PWL (paw withdrawal latency) (CFA-stimulated rats): statistically significant increase
- AST levels in plasma compared to CCl4-treated mice receiving vehicle ([3]; 0.5 mg/kg, 8 mg/kg, and 16 mg/kg): modest but non-significant decreases
- AST in plasma, improvement compared to disease control ([3]; Dose 0.5 (mg/kg)): ++ (++ = >26-50% improvement compared to disease control)
- AST in plasma, improvement compared to disease control ([3]; Dose 2 (mg/kg)): − (− = change of <5% compared to disease control)
- AST in plasma, improvement compared to disease control ([3]; Dose 8 (mg/kg)): ++ (++ = >26-50% improvement compared to disease control)
- AST in plasma, improvement compared to disease control ([3]; Dose 16 (mg/kg)): ++ (++ = >26-50% improvement compared to disease control)
